The values below come from patent US20250345295A1, “LMK235 COMPOSITIONS AND METHODS” (UNM Rainforest Innovations, priority 2024, published 2025).

This data set concerns mice. Put plainly: Conditioned place preference (CPP) test of addictive potential. It counts as in vivo, mouse. The following applies: 5 mg/kg, three conditioning days. The text has this:
The conditioned place preference (CPP) test was used to compare morphine and LMK235 post-drug behaviors to baseline. Time spent in their assigned drug administration chamber post-drug was divided by the time spent in the chamber during the baseline recording. A score of 1 meant that there was no difference in time spent in either chamber after dosing. A score greater than 1 meant more time was spent in the assigned drug chamber, and a score less than 1 meant less time was spent in the assigned drug chamber.
Mice were assigned either vehicle, morphine (5 mg/kg) or LMK235 (5 mg/kg) and assigned cubicle designation for groups (n=3) as follows: Vehicle-Blank, Vehicle-Striped, Morphine-Blank, Morphine-Striped, LMK-Blank, LMK-Striped. For baseline collection, mice were placed in the middle of the box and allowed access to both chambers for 15 minutes. Time spent in each chamber was recorded. For the subsequent three test days, mice were injected with their assigned drug and placed in their assigned chamber, without access to the other chamber, for 30 minutes. On the final test day, mice were placed in the middle of the box and allowed access to both chambers for 15 minutes. Time spent in each chamber was recorded.

Structures are written as SMILES.

For `CN1CC[C@]23c4c5ccc(O)c4O[C@H]2[C@@H](O)C=C[C@H]3[C@H]1C5` [morphine], the “time in assigned drug chamber post-drug versus baseline (addictive potential)” value is listed as “spent more time in their assigned drug chamber”.
